The source of these data is patent US20200354426A1 (MEDIMMUNE LIMITED, priority 2016, published 2020).

Numbered stars: 1 amine (or outer) side, 2 acyl side, 3 side chain; on linkers, the order of the positions; unused ones are H or OH. Side chains are listed from the residue outwards. Peptide text beside a SMILES is read from it. * marks the point of attachment. γGlu = O=C(O)[C@H](CCC(=O)[*:2])N[*:1]; Palmitoyl = CCCCCCCCCCCCCCCC(=O)* A value given as a limit tells only on which side of the number the result lay.

The target of one data set is T1, Human GlucR (Homo sapiens, UniProt P47871).
T1 construct: expressed in transfected cells
As to the kind of experiment: cAMP assay in 4.4% human serum albumin (assay 2). The format is cell-based. The method, then: (§1) Cryopreserved cell stocks were prepared in 1× cell freezing medium-DMSO serum free (Sigma Aldrich) at 2×10^7/vial and stored at −80° C. […] Peptides were serially diluted in DMSO and then diluted 100 fold into DMEM containing serum albumin at stated final concentration. […] Cells were added to the assay plates and incubated for 30 min at room temperature. Following incubation the assay was stopped and cAMP levels measured using the HTRF® dynamic d2 cAMP assay kit available from CisBio Bioassays, as per the manufacture's guidelines. Plates were read on Perkin Elmer ENVISION® fluorescence plate readers. Human and rat serum albumin were purchased from Sigma Aldrich and mouse serum albumin from Equitech Bio Ltd.
(§2) Data was transformed to % Delta F as described in manufacturer's guidelines and analysed by 4-parameter logistic fit to determine EC50 values. […] For instance. […] To compare the balance of activities at the GLP1R and GlucR between different peptides and across different conditions, these can be correlated using the calculation below, where the EC50's are related to those of the natural ligands.

The target of another data set is T2, Mouse GLP1R (Mus musculus, UniProt O35659).
T2 construct: expressed in transfected cells
T2 sequence (O35659 22-463): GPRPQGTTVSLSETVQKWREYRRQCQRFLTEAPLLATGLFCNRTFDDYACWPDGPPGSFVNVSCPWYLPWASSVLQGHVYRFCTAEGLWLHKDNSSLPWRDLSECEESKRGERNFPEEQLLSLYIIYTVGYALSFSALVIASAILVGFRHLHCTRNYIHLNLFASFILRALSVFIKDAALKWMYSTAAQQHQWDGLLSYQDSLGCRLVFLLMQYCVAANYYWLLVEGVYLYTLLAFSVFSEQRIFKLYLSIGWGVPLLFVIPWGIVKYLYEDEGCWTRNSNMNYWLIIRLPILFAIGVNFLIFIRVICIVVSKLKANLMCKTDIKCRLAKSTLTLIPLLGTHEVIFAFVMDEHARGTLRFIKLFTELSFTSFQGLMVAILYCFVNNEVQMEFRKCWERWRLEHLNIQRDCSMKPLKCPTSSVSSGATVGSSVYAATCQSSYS
The data set can be described thus: cAMP assay in 3.2% mouse serum albumin (assay 2). The format is cell-based. Here is the method: as §1, §2
(In general: Changes in cAMP serve as a functional read-out for many G protein-coupled receptors.)

In the next data set the target is T3, Rat GLP1R (Rattus norvegicus, UniProt P32301).
T3 construct: expressed in transfected cells
T3 sequence (P32301 22-463): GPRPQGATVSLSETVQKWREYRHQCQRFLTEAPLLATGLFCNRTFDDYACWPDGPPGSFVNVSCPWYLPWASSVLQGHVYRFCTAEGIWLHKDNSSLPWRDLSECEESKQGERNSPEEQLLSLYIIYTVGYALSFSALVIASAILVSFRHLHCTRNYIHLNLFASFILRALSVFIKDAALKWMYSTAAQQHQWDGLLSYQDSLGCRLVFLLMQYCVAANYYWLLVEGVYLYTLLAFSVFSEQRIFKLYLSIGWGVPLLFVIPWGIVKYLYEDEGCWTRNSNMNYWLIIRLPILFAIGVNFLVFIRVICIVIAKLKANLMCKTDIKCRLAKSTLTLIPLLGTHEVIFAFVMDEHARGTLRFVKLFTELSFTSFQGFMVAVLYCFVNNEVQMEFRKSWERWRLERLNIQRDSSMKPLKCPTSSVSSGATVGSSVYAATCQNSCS
As to the kind of experiment: cAMP assay in 3.2% rat serum albumin (assay 2). The format is cell-based. The method, then:
as §1, §2

Data set [1] is described as follows: Stability testing of peptides in plasma. In kind it is in vitro ADME, human. The method, then:
The stability in plasma of the peptideS […], […], […] and […] was determined as follows. […] The spiked plasma samples were gently mixed and allowed to equilibrate for about 5 minutes before start of experiment. The plasma samples were incubated for 48 hours in a GalaxyR CO2 incubator at 37° C. […] The samples were stored at -70° C. until analysis. Plasma samples were assayed as follows. […] After mixing and centrifugation, 100 μl the supernatant was transferred to a new plate and 1 μl was injected onto an analytical column. The analysis was performed using a μLC-system ([…]) coupled to a medium high resolution mass spectrometer (Perkin Elmer PenTOF) with positive electrospray ionisation. […] Flow: 0.1 ml/min using a slow reversed phase gradient. […] Cleavage products arise from the action of the protease DPP IV in plasma. Both the degradation of the peptides and formation of peptide products were reported in percentage of the initial peptide concentration. Peaks were integrated and % remaining peptide was calculated: […] Levels of deamidation and DPP IV cleavage were low for […] and […].

Data set [2] is described as follows: Peptide solubility in buffers (A280). The format is physicochemical. From the text:
G730 was soluble in a pH range of 4.5 to 8.0.

Another data set addresses Human GLP1R (Homo sapiens, UniProt P43220). The data set can be described thus: cell-based.
The subject of another data set is healthy volunteers. The data set can be described thus: Phase 1 single-ascending-dose study of G933 (PK, PD, immunogenicity, safety). As to conditions: for Overall daily food intake compared with placebo: across breakfast, lunch and dinner; for Median glucose peak after breakfast: approximately 1 hour post breakfast, 3.5 hours post dose; for Median glucose peak after dinner: approximately 1 hour post dinner, […] post dose; for Median glucose peak after lunch: approximately 1 hour post lunch, 7 hours post dose. In kind it is in vivo, human. An excerpt: The subjects were screened for the following inclusion and exclusion criteria.
Inclusion Criteria: • Healthy volunteers, ages 18 through 45 years at the time of screening; • Body mass index ≥22 and ≤30 kg/m^2 and body weight ≥70 kg; and • Venous access suitable for multiple cannulations.
The period of exclusion to begin 30 days or 5 half-lives of investigational product after the final dose, or after the last visit, whichever is longest. Subjects consented and screened, but not randomized into this study or a previous study, are not excluded; or • Psychiatric illness such that subjects have been committed to an institution by way of official or judicial order
Eight subjects per cohort were planned.

What is called EC50 is the concentration that produces a half-maximal response. A word on the amount remaining: it is the share of the starting amount still present when the sample was taken. A low value points to a greater loss.

T1 sequence (P47871 26-477): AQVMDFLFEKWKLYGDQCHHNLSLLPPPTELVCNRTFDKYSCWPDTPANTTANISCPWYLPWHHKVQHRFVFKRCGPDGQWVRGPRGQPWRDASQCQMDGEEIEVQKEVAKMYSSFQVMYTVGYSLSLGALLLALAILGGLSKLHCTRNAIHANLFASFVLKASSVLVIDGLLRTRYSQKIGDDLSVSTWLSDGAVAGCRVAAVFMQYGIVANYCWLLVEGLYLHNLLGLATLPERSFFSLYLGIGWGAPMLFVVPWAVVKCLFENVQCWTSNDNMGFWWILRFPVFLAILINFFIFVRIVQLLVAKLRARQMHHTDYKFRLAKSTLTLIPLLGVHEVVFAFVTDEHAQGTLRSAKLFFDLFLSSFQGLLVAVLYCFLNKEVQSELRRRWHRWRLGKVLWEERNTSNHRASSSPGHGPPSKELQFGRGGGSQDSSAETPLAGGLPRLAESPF
Sequence of Human GLP1R (P43220 24-463): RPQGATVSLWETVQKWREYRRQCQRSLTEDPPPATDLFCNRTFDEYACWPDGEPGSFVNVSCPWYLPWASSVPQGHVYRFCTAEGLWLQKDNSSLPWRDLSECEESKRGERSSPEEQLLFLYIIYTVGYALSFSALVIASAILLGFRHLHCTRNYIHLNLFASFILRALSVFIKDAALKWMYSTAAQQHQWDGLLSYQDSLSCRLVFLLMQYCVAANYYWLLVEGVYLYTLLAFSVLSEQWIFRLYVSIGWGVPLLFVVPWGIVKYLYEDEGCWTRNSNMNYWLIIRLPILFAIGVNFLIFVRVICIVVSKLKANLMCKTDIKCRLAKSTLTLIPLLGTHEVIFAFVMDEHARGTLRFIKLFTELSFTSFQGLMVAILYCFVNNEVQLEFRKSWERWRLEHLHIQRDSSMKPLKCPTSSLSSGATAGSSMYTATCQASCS

As to `CCCCCCCCCCCCCCCC(=O)N[C@@H](CCC(=O)NCCCC[C@H](NC(=O)[C@H](CCCCN)NC(=O)[C@H](CO)NC(=O)[C@H](Cc1ccc(O)cc1)NC(=O)[C@H](CC(=O)O)NC(=O)[C@H](CO)NC(=O)[C@@H](NC(=O)[C@H](Cc1ccccc1)NC(=O)[C@@H](NC(=O)CNC(=O)[C@H](CCC(N)=O)NC(=O)[C@H](CO)NC(=O)[C@@H](N)Cc1c[nH]cn1)[C@@H](C)O)[C@@H](C)O)C(=O)N[C@@H](CC(C)C)C(=O)N[C@@H](CC(=O)O)C(=O)N[C@@H](CO)C(=O)N[C@@H](CCC(=O)O)C(=O)N[C@@H](CCCNC(=N)N)C(=O)N[C@@H](C)C(=O)N[C@@H](CCCNC(=N)N)C(=O)N[C@@H](CC(=O)O)C(=O)N[C@@H](Cc1ccccc1)C(=O)N[C@H](C(=O)N[C@@H](C)C(=O)N[C@@H](Cc1c[nH]c2ccccc12)C(=O)N[C@@H](CC(C)C)C(=O)N[C@H](C(=O)N[C@@H](C)C(=O)NCC(=O)NCC(N)=O)C(C)C)C(C)C)C(=O)O` [Peptide G730] (H-HSQGTFTSDYSKK([γGlu-Palmitoyl])LDSERARDFVAWLVAGG-NH2; N-terminus assumed), the EC50 on Human GlucR is 402 pM; on Mouse GLP1R, 1100 pM; at Rat GLP1R, 81 pM; on Human GLP1R (EC50 at the GLP1R at 0% HSA, calculated from variation in cAMP generation with HSA concentration) it was 7 pM; at Human GLP1R (Human GLP1R EC50, 4.4% human serum albumin), 455 pM. The “Human GlucR/GLP1R Ratio” value at Human GlucR (relative potency GlucR / relative potency GLP1R vs natural ligands) is 0.122. The “% +1 prod” value in data set [1] is below 1%. The “% DPP cleaved product/+1 DPP cleaved product” value in data set [1] is given as below 1%. The same compound returned a share remaining at 24 h, 2 μmol/L in data set [1] (human, plasma) of 100%. Moreover, the “Conc. (A280), target 1 mg/ml” value is 830 µg/mL in data set [2] (Glutamate pH 4.5, 100 mM); 830 µg/mL in data set [2] (Phosphate pH 6.5, 100 mM); 850 µg/mL in data set [2] (Phosphate pH 7.5, 100 mM); 140 µg/mL in data set [2] (Phosphate, pH = 6, 100 mM); 830 µg/mL in data set [2] (Tris pH 7.5, 100 mM); 1100 µg/mL in data set [2] (Tris pH 8.0, 100 mM).
As to “L-Histidyl-L-seryl-L-glutaminylglycyl-L-threonyl-L-phenylalanyl-L-threonyl-L-seryl-L-alpha-aspartyl-(N6-[N-(1-oxohexadecyl)-L-gamma-gutamyl])L-lysy-L-sery-L-alpha-glutamyl-L-tyrosyl-L-leucyl-L-alpha-aspartyl-L-seryl-L-alpha-glutamyl-L-arginyl-L-alanyl-L-arginyl-L-alpha-L-aspartyl-L-phenylalanyl-L-valyl-L-alanyl-L-tryptophyl-L-leucyl-L-alpha-glutamyl-L-alanylglycylglycine [Peptide G933]”, the “Overall daily food intake compared with placebo” value in the data set on healthy volunteers (Dose (µg) 5) stood at 100%; in the data set on healthy volunteers (Dose (µg) 10), 100%; in the data set on healthy volunteers (Dose (µg) 30), 96%; in the data set with healthy volunteers (Dose (µg) 100), 82%; in the data set on healthy volunteers (Dose (µg) 150), 60%; in the data set on healthy volunteers (Dose (µg) 300) it was 23%. Further, the “Median glucose peak after breakfast” value in the data set on healthy volunteers (Dose (µg) 5) was determined as 6.2 mmol/L; in the data set with healthy volunteers (Dose (µg) 10) it was 5.8 mmol/L; in the data set on healthy volunteers (Dose (µg) 30), 5.4 mmol/L; in the data set on healthy volunteers (Dose (µg) 100), 5.5 mmol/L; with healthy volunteers (Dose (µg) 150), 5.1 mmol/L; with healthy volunteers (Dose (µg) 300), 4.7 mmol/L. Besides, the “Median glucose peak after dinner” value in the data set with healthy volunteers (Dose (µg) 5) was determined as 7.0 mmol/L; in the data set with healthy volunteers (Dose (µg) 10), 6.0 mmol/L; in the data set with healthy volunteers (Dose (µg) 30), 5.2 mmol/L; with healthy volunteers (Dose (µg) 100), 5.2 mmol/L; in the data set on healthy volunteers (Dose (µg) 150) it was 5.2 mmol/L; with healthy volunteers (Dose (µg) 300) it was 4.9 mmol/L. The “Median glucose peak after lunch” value in the data set on healthy volunteers (Dose (µg) 5) was 4.9 mmol/L; in the data set with healthy volunteers (Dose (µg) 10) it was 5.1 mmol/L; with healthy volunteers (Dose (µg) 30), 4.4 mmol/L; in the data set on healthy volunteers (Dose (µg) 100) it was 4.7 mmol/L; in the data set on healthy volunteers (Dose (µg) 150) it was 5.1 mmol/L; in the data set with healthy volunteers (Dose (µg) 300), 5.1 mmol/L. The “overall daily food intake” value with healthy volunteers (all single doses compared with placebo) is “reduction in overall daily food intake”. Besides, the plasma glucose levels entry in the data set with healthy volunteers (all single doses, 2.5-14 hours post-dose) is “glucose lowering effect”.
